Measured values from the OPERA property sets (Mansouri et al. 2018).

Conditions: not given

Compound | boiling point [°C] | log10 biodegradation half-life (days) | log10 vapour pressure (mmHg) | melting point [°C] | ready biodegradability | log10 Henry constant (atm·m³/mol) | log10 Koc (L/kg)
COc1ccco1 | 110 | – | – | – | – | – | –
Cc1cccc2c1CCC2 | 205 | 0.301 | – | – | – | – | –
CC(C)c1cccc2ccccc12 | 268 | – | -2.22 | -16 | – | – | –
O[C@@H]1[C@H]2CC[C@H](C2)[C@@H]1O | – | – | – | 139 | – | – | –
COc1ccc(OC)cc1 | 213 | – | – | 59 | readily biodegradable | – | –
CC(=O)Nc1c(C)cccc1C | – | – | – | 183 | – | – | –
CN1CCN(C2=Nc3cc(Cl)ccc3Nc3ccccc32)CC1 | – | – | – | 184 | – | – | –
CCNc1ccc2ccccc2c1 | 316 | – | – | 236 | – | – | –
COc1ccc(NC(C)=O)cc1N | – | – | – | – | not readily biodegradable | – | –
c1ccc(-c2coc(-c3ccccc3)n2)cc1 | 339 | – | – | 103 | – | – | –
CC[C@H]1CCCC[C@H]1C | 154 | – | – | – | – | – | –
FC(F)F | -82.1 | – | 4.55 | -155 | – | -1.02 | –
CC(=O)O[C@]1(C(C)=O)CC[C@H]2[C@@H]3C=C(Cl)C4=CC(=O)C=C[C@]4(C)[C@H]3CC[C@@]21C | – | – | – | 168 | – | – | –
CCCCOC(=O)CC(=O)OCCCC | 252 | – | – | -83 | – | – | –
O=c1ccc2cc(Cl)ccc2o1 | – | – | – | 165 | – | – | –
Clc1cc(Cl)c(Cl)c(-c2ccc(Cl)c(Cl)c2Cl)c1 | – | – | – | – | – | -4.43 | –
COC(=O)c1ccccc1C | 215 | – | – | – | – | – | –
CC=CCCl | 80.7 | – | 1.84 | – | – | – | –
Nc1ccc(C(F)(F)F)cc1 | – | – | – | 38 | – | – | –
O=[N+]([O-])c1cccc(-c2ccccc2)c1 | – | – | – | 62 | – | – | –
COC(=O)c1ccccc1N | 256 | – | -1.57 | 24.5 | – | – | –
OCCn1ccnc1 | – | – | – | 39 | – | – | –
Cc1cc(O)c([N+](=O)[O-])cc1Cl | – | – | -3.07 | 133 | – | – | –
C#CC(C)=CC | 66.5 | – | – | – | – | – | –
CC(C)(C)NCCNC(C)(C)C | 197 | – | -0.575 | – | – | – | –

Compound | boiling point [°C] | log10 biodegradation half-life (days) | log10 vapour pressure (mmHg) | melting point [°C] | ready biodegradability | log10 Henry constant (atm·m³/mol) | log10 Koc (L/kg)
Nc1cc(-c2ccccc2)ccc1O | – | – | – | 200 | – | – | –
N#CC1CCCCC1 | – | – | – | 11 | – | – | –
CC1(C)O[C@H]2CC(=O)OC[C@]23[C@H]2CC[C@@]4(C)[C@H](c5ccoc5)OC(=O)[C@H]5O[C@]54[C@]2(C)C(=O)C[C@@H]13 | – | – | – | 298 | – | – | –
COc1ccc(CC=O)cc1 | 256 | – | – | – | – | – | –
CCCC(=NOCC)C1=C(O)CC(C2CCCSC2)CC1=O (stereo not given) | – | – | -7.12 | 41 | – | – | –
CCCCCCCCCCCCCCCN | 308 | – | – | 37.3 | – | – | –
CCCCNc1cc(C(=O)O)cc(S(N)(=O)=O)c1Oc1ccccc1 | – | – | – | 230 | – | – | –
Cc1ccccc1I | 212 | – | -0.344 | – | – | – | –
O=C(O)c1cc(Cl)ccc1Cl | 301 | – | – | 154 | not readily biodegradable | – | –
C1=CSCC1 | 112 | – | – | – | – | – | –
Brc1cc(Br)c(Br)cc1Br | – | – | – | 182 | – | – | –
CC(C=CC=CC(C)=CC=CC(C)=CC=C1C(C)=CC(=O)CC1(C)C)=CC=CC(C)=CC=C1C(C)=CC(=O)CC1(C)C | – | – | – | 219 | – | – | –
C/C=C/C(=O)OC | 120 | – | – | -42 | – | – | –
C=CC(=O)OCC(C)C | 132 | – | 0.907 | -61 | – | – | –
O=C(O)Cc1ccccc1F | – | – | – | 63 | – | – | –
Nc1c(Cl)cc(Cl)cc1Br | 273 | – | – | 83.5 | – | – | –
CCCSc1ccccc1 | 220 | – | – | -45 | – | – | –
C#C[C@]1(O)CC[C@H]2[C@@H]3CCC4=CC(=O)CC[C@@H]4[C@H]3CC[C@@]21CC | – | – | – | 223 | – | – | –
CCCCCCCCCN | 202 | – | -0.556 | -1 | – | – | –
O=C(O)C1CCNCC1 | – | – | – | 336 | – | – | –
O=c1[nH]cccc1O | – | – | – | – | not readily biodegradable | – | –
FCC(F)(F)C(F)F | 26 | – | 2.88 | -82 | – | – | –
Cc1ncc([N+](=O)[O-])n1CC(O)CCl (stereo not given) | – | – | – | 77.5 | – | – | –
CCCC(C)(CO)CO | 234 | – | – | 62.5 | – | – | –
O[C@@H]1CC[C@H](O)C1 | – | – | – | 35.5 | – | – | –

Compound | boiling point [°C] | log10 biodegradation half-life (days) | log10 vapour pressure (mmHg) | melting point [°C] | ready biodegradability | log10 Henry constant (atm·m³/mol) | log10 Koc (L/kg)
Cc1ccc(Cl)cc1N | 239 | – | – | 26 | – | – | –
O=C(Nc1ccc(Cl)cc1C(O)c1ccccc1)c1ccncc1 (stereo not given) | – | – | – | 211 | – | – | –
CCCCCCCCCCl | 204 | – | -0.574 | -39.4 | – | – | –
CCCCC(=O)O[C@]1(C(=O)CO)CC[C@H]2[C@@H]3CCC4=CC(=O)C=C[C@]4(C)[C@H]3[C@@H](O)C[C@@]21C | – | – | – | 212 | – | – | –
O=C1C(CCS(=O)c2ccccc2)C(=O)N(c2ccccc2)N1c1ccccc1 (stereo not given) | – | – | – | 136 | – | – | –
Nc1cc(Cl)cc(C(=O)O)c1Cl | 312 | – | – | 200 | not readily biodegradable | – | 1.48
CC(C)CC(=O)Cl | 114 | – | – | – | – | – | –
OCCNC(=S)C(=S)NCCO | – | – | – | 93.3 | – | – | –
O=CC1CCCCC1 | 159 | – | – | – | – | – | –
O=c1cc(-c2ccccc2)oc2cc(O)cc(O)c12 | – | – | – | 286 | – | – | –
CCc1cccc(CC)c1N | 236 | – | -2.42 | 3.5 | – | – | –
CCCCCCCCCCCCCC=O | 260 | – | – | 20.5 | – | – | –
CCC#CCCCC | 133 | – | – | -104 | – | – | –
Cc1ccc(O)c(C)c1C | 236 | – | – | 81 | – | – | –
c1ccc2cc3cc4cc5ccccc5cc4cc3cc2c1 | – | – | – | 257 | not readily biodegradable | – | –
c1cc2c(cn1)CCCC2 | 218 | – | – | 146 | – | – | –
CCCCCCCCCCCCCCC(C)O (stereo not given) | 314 | – | – | 44 | – | – | –
C[N+](C)(C)CCOC(Cc1ccccc1)c1ccccc1.[Br-] (stereo not given) | – | – | – | 146 | – | – | –
O=c1cc(-c2ccc(O)cc2)oc2cc(O)cc(O)c12 | – | – | – | 348 | – | – | –
COc1ccc(C(=O)c2ccccc2C(=O)O)cc1 | – | – | – | 146 | – | – | –
COc1cc(CCn2cccc2C(=O)O)cc(OC)c1OC | – | – | – | 132 | – | – | –
Nc1cn[nH]c1 | – | – | – | 81 | – | – | –
CC1=C(c2ccccc2)C(=O)N(C(C)(C)c2cc(Cl)cc(Cl)c2)CO1 | – | – | – | 150 | – | – | –
CC(C)=CCC[C@@H](C)CC=O | 207 | – | – | – | – | – | –
Nc1ccc2ccccc2c1N | – | – | – | 98.5 | – | – | –

Compound | boiling point [°C] | log10 biodegradation half-life (days) | log10 vapour pressure (mmHg) | melting point [°C] | ready biodegradability | log10 Henry constant (atm·m³/mol) | log10 Koc (L/kg)
O=C1c2ccccc2C(=O)N1CCCBr | – | – | – | 75 | – | – | –
CC(C)CCC[C@@H](C)[C@H]1CC[C@H]2[C@@H]3CCC4=C[C@@H](O)CC[C@]4(C)[C@H]3CC[C@]12C | – | – | – | 132 | – | – | –
CC(C)NC(=O)N1CC(=O)N(c2cc(Cl)cc(Cl)c2)C1=O | – | – | -8.43 | 136 | – | -8.51 | 2.85
CCS(=O)(=O)Cl | 174 | – | – | – | – | – | –
Cc1cc(N)ccc1Br | 240 | – | – | 81 | – | – | 2.26
CCC(Cl)C(C)Cl (stereo not given) | 139 | – | – | -77.3 | – | – | –
C=CC(=C)Cl | 59.4 | – | 2.33 | -130 | – | – | –
COc1ccccc1OC | 206 | – | -0.328 | 22.5 | readily biodegradable | – | 2.03
CCCCCCI | 181 | – | 0.147 | -74.2 | readily biodegradable | -1.55 | –
CCNc1nc(Cl)nc(N(CC)CC)n1 | – | – | – | 101 | – | – | 2.76
CCCOC | 39.1 | – | 2.67 | – | – | – | –
CC(C)=CCC1=C(O)C(C(=O)CC(C)C)=C(O)C(CC=C(C)C)(CC=C(C)C)C1=O | – | – | – | 93 | – | – | –
O=S(=O)(O)CCCN1CCOCC1 | – | – | – | 284 | – | – | –
c1ccc2c(c1)ccc1c3ccccc3sc21 | – | – | -6.94 | 189 | – | – | –
CCCCCCCCCCC(=O)OCC | – | – | -2.37 | -15 | – | – | –
CCCC(=O)C1=C(O)C(C)(C)C(O)=C(Cc2c(O)c(C)c(O)c(C(=O)CCC)c2O)C1=O | – | – | – | 156 | – | – | –
O=C(Nc1ccc(Cl)cc1)Nc1ccc(Cl)c(C(F)(F)F)c1 | – | – | – | 214 | – | – | –
CCOP(=O)(OCC)OC(=CCl)c1ccc(Cl)cc1Cl | – | – | -5.12 | -20 | – | – | 2.47
O=C1Cc2ccccc2O1 | 249 | – | – | 50 | – | – | –
OCCC(F)(F)F | 99.5 | – | – | – | – | – | –
CCc1cccc(CC)c1N(COC)C(=O)CCl | – | – | – | 40 | not readily biodegradable | -8.08 | 2.28
Fc1cc(F)cc(F)c1 | 75.5 | – | 2.02 | -5.5 | – | – | –

Same assay, conditions: fish

Compound | log10 BCF | log10 biotransformation half-life (days)
Brc1cc(Br)c(Br)cc1Br | 3.59 | 1.35
CC(C)NC(=O)N1CC(=O)N(c2cc(Cl)cc(Cl)c2)C1=O | 2.53 | –
CCc1cccc(CC)c1N(COC)C(=O)CCl | 1.12 | -1.1
